# Biological target: cellular cereblon (CRBN) (Homo sapiens, UniProt Q96SW2)
# Test: NanoBRET Target Engagement Assay, competition with pomalidomide tracer in 293T.116 cells
# Settings: 2 hours incubation, 293T.116 cells; IP
row,Structure (SMILES),NanoBRET TE 293T.116 CRBN 2 hours IP nM
1,"COc1ccc(OC2CCC(=O)NC2=O)cc1S(=O)(=O)F (stereo not drawn) [Compound A-16, 5-[(2,6-dioxo-3-piperidyl)oxy]-2-methoxy-benzenesulfonyl fluoride]",*** (<= 1 μM is ***)
2,"CN(c1cccc(OS(=O)(=O)F)c1)C1CCC(=O)NC1=O (stereo not drawn) [Compound A-18, 3-((2,6-dioxopiperidin-3-yl)(methyl)amino)phenyl sulfurofluoridate]",** (<10 μM and >1 μM is **)
3,"Cc1ccc(OC2CCC(=O)NC2=O)cc1OS(=O)(=O)F (stereo not drawn) [Compound A-19, 5-((2,6-dioxopiperidin-3-yl)oxy)-2-methylphenyl sulfurofluoridate]",** (<10 μM and >1 μM is **)
4,"COc1ccc(OC2CCC(=O)NC2=O)cc1OS(=O)(=O)F (stereo not drawn) [Compound A-27, 5-((2,6-dioxopiperidin-3-yl)oxy)-2-methoxyphenyl sulfurofluoridate]",** (<10 μM and >1 μM is **)
5,"Cn1nc(N2CCC(=O)NC2=O)c2cccc(OS(=O)(=O)F)c21 [Compound A-30, 3-(2,4-dioxotetrahydropyrimidin-1(2H)-yl)-1-methyl-1H-indazol-7-yl sulfurofluoridate]",** (<10 μM and >1 μM is **)

# Same assay, conditions: 6 hours incubation, 293T.116 cells; IP
row,Structure (SMILES),NanoBRET TE 293T.116 CRBN 6 hours IP nM
1,"COc1ccc(OC2CCC(=O)NC2=O)cc1S(=O)(=O)F (stereo not drawn) [Compound A-16, 5-[(2,6-dioxo-3-piperidyl)oxy]-2-methoxy-benzenesulfonyl fluoride]",*** (<= 1 μM is ***)
2,"CN(c1cccc(OS(=O)(=O)F)c1)C1CCC(=O)NC1=O (stereo not drawn) [Compound A-18, 3-((2,6-dioxopiperidin-3-yl)(methyl)amino)phenyl sulfurofluoridate]",* (>=10 μM is *)
3,"Cc1ccc(OC2CCC(=O)NC2=O)cc1OS(=O)(=O)F (stereo not drawn) [Compound A-19, 5-((2,6-dioxopiperidin-3-yl)oxy)-2-methylphenyl sulfurofluoridate]",** (<10 μM and >1 μM is **)
4,"COc1ccc(OC2CCC(=O)NC2=O)cc1OS(=O)(=O)F (stereo not drawn) [Compound A-27, 5-((2,6-dioxopiperidin-3-yl)oxy)-2-methoxyphenyl sulfurofluoridate]",** (<10 μM and >1 μM is **)
5,"Cn1nc(N2CCC(=O)NC2=O)c2cccc(OS(=O)(=O)F)c21 [Compound A-30, 3-(2,4-dioxotetrahydropyrimidin-1(2H)-yl)-1-methyl-1H-indazol-7-yl sulfurofluoridate]",*** (<= 1 μM is ***)

# Same assay, conditions: 24 hours incubation, 293T.116 cells; IP
row,Structure (SMILES),NanoBRET TE 293T.116 CRBN 24 hours IP nM
1,"COc1ccc(OC2CCC(=O)NC2=O)cc1S(=O)(=O)F (stereo not drawn) [Compound A-16, 5-[(2,6-dioxo-3-piperidyl)oxy]-2-methoxy-benzenesulfonyl fluoride]",*** (<= 1 μM is ***)
2,"CN(c1cccc(OS(=O)(=O)F)c1)C1CCC(=O)NC1=O (stereo not drawn) [Compound A-18, 3-((2,6-dioxopiperidin-3-yl)(methyl)amino)phenyl sulfurofluoridate]",** (<10 μM and >1 μM is **)
3,"Cc1ccc(OC2CCC(=O)NC2=O)cc1OS(=O)(=O)F (stereo not drawn) [Compound A-19, 5-((2,6-dioxopiperidin-3-yl)oxy)-2-methylphenyl sulfurofluoridate]",** (<10 μM and >1 μM is **)
4,"COc1ccc(OC2CCC(=O)NC2=O)cc1OS(=O)(=O)F (stereo not drawn) [Compound A-27, 5-((2,6-dioxopiperidin-3-yl)oxy)-2-methoxyphenyl sulfurofluoridate]",** (<10 μM and >1 μM is **)
5,"Cn1nc(N2CCC(=O)NC2=O)c2cccc(OS(=O)(=O)F)c21 [Compound A-30, 3-(2,4-dioxotetrahydropyrimidin-1(2H)-yl)-1-methyl-1H-indazol-7-yl sulfurofluoridate]",** (<10 μM and >1 μM is **)

# Same assay, conditions: NanoBRET TE 293T.116 CRBN 2 hours IC50 nM, 2 hours incubation, 293T.116 cells
row,Structure (SMILES),IC50 [nM]
1,"COc1ccc(OC2CCC(=O)NC2=O)cc1S(=O)(=O)F (stereo not drawn) [Compound A-16, 5-[(2,6-dioxo-3-piperidyl)oxy]-2-methoxy-benzenesulfonyl fluoride]",< 1000
2,"CN(c1cccc(OS(=O)(=O)F)c1)C1CCC(=O)NC1=O (stereo not drawn) [Compound A-18, 3-((2,6-dioxopiperidin-3-yl)(methyl)amino)phenyl sulfurofluoridate]",1000 to 10000
3,"Cc1ccc(OC2CCC(=O)NC2=O)cc1OS(=O)(=O)F (stereo not drawn) [Compound A-19, 5-((2,6-dioxopiperidin-3-yl)oxy)-2-methylphenyl sulfurofluoridate]",1000 to 10000
4,"COc1ccc(OC2CCC(=O)NC2=O)cc1OS(=O)(=O)F (stereo not drawn) [Compound A-27, 5-((2,6-dioxopiperidin-3-yl)oxy)-2-methoxyphenyl sulfurofluoridate]",1000 to 10000
5,"Cn1nc(N2CCC(=O)NC2=O)c2cccc(OS(=O)(=O)F)c21 [Compound A-30, 3-(2,4-dioxotetrahydropyrimidin-1(2H)-yl)-1-methyl-1H-indazol-7-yl sulfurofluoridate]",1000 to 10000

# Same assay, conditions: NanoBRET TE 293T.116 CRBN 6 hours IC50 nM, 6 hours incubation, 293T.116 cells
row,Structure (SMILES),IC50 [nM]
1,"COc1ccc(OC2CCC(=O)NC2=O)cc1S(=O)(=O)F (stereo not drawn) [Compound A-16, 5-[(2,6-dioxo-3-piperidyl)oxy]-2-methoxy-benzenesulfonyl fluoride]",< 1000
2,"CN(c1cccc(OS(=O)(=O)F)c1)C1CCC(=O)NC1=O (stereo not drawn) [Compound A-18, 3-((2,6-dioxopiperidin-3-yl)(methyl)amino)phenyl sulfurofluoridate]",1000 to 10000
3,"Cc1ccc(OC2CCC(=O)NC2=O)cc1OS(=O)(=O)F (stereo not drawn) [Compound A-19, 5-((2,6-dioxopiperidin-3-yl)oxy)-2-methylphenyl sulfurofluoridate]",1000 to 10000
4,"COc1ccc(OC2CCC(=O)NC2=O)cc1OS(=O)(=O)F (stereo not drawn) [Compound A-27, 5-((2,6-dioxopiperidin-3-yl)oxy)-2-methoxyphenyl sulfurofluoridate]",1000 to 10000
5,"Cn1nc(N2CCC(=O)NC2=O)c2cccc(OS(=O)(=O)F)c21 [Compound A-30, 3-(2,4-dioxotetrahydropyrimidin-1(2H)-yl)-1-methyl-1H-indazol-7-yl sulfurofluoridate]",< 1000

# Same assay, conditions: NanoBRET TE 293T.116 CRBN 24 hours IC50 nM, 24 hours incubation, 293T.116 cells
row,Structure (SMILES),IC50 [nM]
1,"COc1ccc(OC2CCC(=O)NC2=O)cc1S(=O)(=O)F (stereo not drawn) [Compound A-16, 5-[(2,6-dioxo-3-piperidyl)oxy]-2-methoxy-benzenesulfonyl fluoride]",< 1000
2,"CN(c1cccc(OS(=O)(=O)F)c1)C1CCC(=O)NC1=O (stereo not drawn) [Compound A-18, 3-((2,6-dioxopiperidin-3-yl)(methyl)amino)phenyl sulfurofluoridate]",1000 to 10000
3,"Cc1ccc(OC2CCC(=O)NC2=O)cc1OS(=O)(=O)F (stereo not drawn) [Compound A-19, 5-((2,6-dioxopiperidin-3-yl)oxy)-2-methylphenyl sulfurofluoridate]",1000 to 10000
4,"COc1ccc(OC2CCC(=O)NC2=O)cc1OS(=O)(=O)F (stereo not drawn) [Compound A-27, 5-((2,6-dioxopiperidin-3-yl)oxy)-2-methoxyphenyl sulfurofluoridate]",> 10000
5,"Cn1nc(N2CCC(=O)NC2=O)c2cccc(OS(=O)(=O)F)c21 [Compound A-30, 3-(2,4-dioxotetrahydropyrimidin-1(2H)-yl)-1-methyl-1H-indazol-7-yl sulfurofluoridate]",1000 to 10000

# Same assay, conditions: read-out: NanoBRET TE 293T.116 CRBN 2 hours Emax
row,Structure (SMILES),Emax [%]
1,"COc1ccc(OC2CCC(=O)NC2=O)cc1S(=O)(=O)F (stereo not drawn) [Compound A-16, 5-[(2,6-dioxo-3-piperidyl)oxy]-2-methoxy-benzenesulfonyl fluoride]",< 50
2,"CN(c1cccc(OS(=O)(=O)F)c1)C1CCC(=O)NC1=O (stereo not drawn) [Compound A-18, 3-((2,6-dioxopiperidin-3-yl)(methyl)amino)phenyl sulfurofluoridate]",< 50
3,"Cc1ccc(OC2CCC(=O)NC2=O)cc1OS(=O)(=O)F (stereo not drawn) [Compound A-19, 5-((2,6-dioxopiperidin-3-yl)oxy)-2-methylphenyl sulfurofluoridate]",< 50
4,"COc1ccc(OC2CCC(=O)NC2=O)cc1OS(=O)(=O)F (stereo not drawn) [Compound A-27, 5-((2,6-dioxopiperidin-3-yl)oxy)-2-methoxyphenyl sulfurofluoridate]",< 50
5,"Cn1nc(N2CCC(=O)NC2=O)c2cccc(OS(=O)(=O)F)c21 [Compound A-30, 3-(2,4-dioxotetrahydropyrimidin-1(2H)-yl)-1-methyl-1H-indazol-7-yl sulfurofluoridate]",< 50

# Same assay, conditions: read-out: NanoBRET TE 293T.116 CRBN 6 hours Emax
row,Structure (SMILES),Emax [%]
1,"COc1ccc(OC2CCC(=O)NC2=O)cc1S(=O)(=O)F (stereo not drawn) [Compound A-16, 5-[(2,6-dioxo-3-piperidyl)oxy]-2-methoxy-benzenesulfonyl fluoride]",< 50
2,"CN(c1cccc(OS(=O)(=O)F)c1)C1CCC(=O)NC1=O (stereo not drawn) [Compound A-18, 3-((2,6-dioxopiperidin-3-yl)(methyl)amino)phenyl sulfurofluoridate]",< 50
3,"Cc1ccc(OC2CCC(=O)NC2=O)cc1OS(=O)(=O)F (stereo not drawn) [Compound A-19, 5-((2,6-dioxopiperidin-3-yl)oxy)-2-methylphenyl sulfurofluoridate]",< 50
4,"COc1ccc(OC2CCC(=O)NC2=O)cc1OS(=O)(=O)F (stereo not drawn) [Compound A-27, 5-((2,6-dioxopiperidin-3-yl)oxy)-2-methoxyphenyl sulfurofluoridate]",< 50
5,"Cn1nc(N2CCC(=O)NC2=O)c2cccc(OS(=O)(=O)F)c21 [Compound A-30, 3-(2,4-dioxotetrahydropyrimidin-1(2H)-yl)-1-methyl-1H-indazol-7-yl sulfurofluoridate]",< 50

# Same assay, conditions: read-out: NanoBRET TE 293T.116 CRBN 24 hours Emax
row,Structure (SMILES),Emax [%]
1,"COc1ccc(OC2CCC(=O)NC2=O)cc1S(=O)(=O)F (stereo not drawn) [Compound A-16, 5-[(2,6-dioxo-3-piperidyl)oxy]-2-methoxy-benzenesulfonyl fluoride]",< 50
2,"CN(c1cccc(OS(=O)(=O)F)c1)C1CCC(=O)NC1=O (stereo not drawn) [Compound A-18, 3-((2,6-dioxopiperidin-3-yl)(methyl)amino)phenyl sulfurofluoridate]",< 50
3,"Cc1ccc(OC2CCC(=O)NC2=O)cc1OS(=O)(=O)F (stereo not drawn) [Compound A-19, 5-((2,6-dioxopiperidin-3-yl)oxy)-2-methylphenyl sulfurofluoridate]",< 50
4,"COc1ccc(OC2CCC(=O)NC2=O)cc1OS(=O)(=O)F (stereo not drawn) [Compound A-27, 5-((2,6-dioxopiperidin-3-yl)oxy)-2-methoxyphenyl sulfurofluoridate]",50 to 80
5,"Cn1nc(N2CCC(=O)NC2=O)c2cccc(OS(=O)(=O)F)c21 [Compound A-30, 3-(2,4-dioxotetrahydropyrimidin-1(2H)-yl)-1-methyl-1H-indazol-7-yl sulfurofluoridate]",< 50
